Data as given in patent US20260335223A1, “Topical Copolymer Formulations for Hydrophobic Drug Delivery” (1376683 B.C. LTD, priority 2023, published 2026).
Values after ≈ are worked out from the molar mass of the structure shown.

Columns and labels:
[1] = Skin permeation, Franz diffusion cell; conditions: 3 hours
Text: To collect the data illustrated in this Example, fresh pig skin is placed on a Franz diffusion cell and the formulation of interest is applied to the outer skin surface. After three hours the cell is dismantled and the exposed circular area excised. […] The amount of drug in each section is then quantitated and expressed at mass of drug/gram of tissue.
For cannabinoid aqueous gel preparation for skin permeation study and therapeutic efficacy studies, a water-based gel comprised of water, phenoxyethanol, ethylhexyl glycerin, acrylates/C10-30 alkyl acrylate crosspolymer, sodium hydroxide and allantoin, was used as the gel base. Gel base and diblock copolymer were weighed, mixed together and heated using a microwave for 4 seconds. A homogenous gel containing diblock copolymer was achieved via levigation of the mixture. Gel base without diblock copolymer was weighed and used for the control formula. Commercial cannabinoid-containing extracts containing known quantities of cannabinoid were weighed and dissolved in a pre-weighed amount of cacao butter over 45 °C heat. The cacao butter cannabinoid mixture was then weighed and incorporated into the gel base, with or without diblock copolymer, via levigation to produce the final gel samples. Cannabinoid content of the final gel samples was analyzed using HPLC. […] Gel samples were stored in air-tight containers at 4 °C until the time of use.
For carboxymethyl cellulose (CMC) gel and Glaxal® base preparation for skin permeation study of cannabidiol (CBD), curcumin, capsaicin and finasteride, CMC gel was made using medium viscosity CMC as a 2% w/v aqueous solution following overnight stirring. […] For CMC preparations containing DBC, DBC was weighed into a glass vial and a small volume of the drug of interest in acetonitrile:methanol (50:50) was added to dissolve all. The solution was then dried for 2 hours in a warm oven (50 °C). In all cases the ratio of DBC:drug was 95:5. A known weight of CMC gel was then added to the warmed vial containing the dried DBC/drug mixture and vortexed to disperse and dissolve all drug. Glaxal® base was used as received. Glaxal® base containing drug was prepared by first weighing drug and dissolving in a known volume of ethanol or methanol. The ethanol or methanol drug solution was then added to a weighed amount of Glaxal® base followed by levigation of the mixture. For CBD, capsaicin, docetaxel and finasteride, it was not possible to prepare CMC gels without the use of DBC, due to drug insolubility. Therefore Glaxal® base preparations containing these drugs were employed as DBC-free comparison groups (control) for skin permeation studies.
For carboxymethyl cellulose (CMC) gel and Glaxal® base preparation for skin permeation study of docetaxel, 2% CMC gel was prepared as described above. Docetaxel (DTX) 6 mg was weighed into 190 μL of acetonitrile and 10 μL of 3H radiolabeled DTX was added. Then 66 μL (i.e., 2 mg of drug) was pipetted into a vial with 40 mg of DBC to dissolve all. The contents were dried down and 1 mL of warm 2% CMC gel was added with vortexing to dissolve all DBC and drug as a micellar solution. For Glaxal® paste 66 μL of the drug solution was dried down to approximately 20 μL and 1 gram of Glaxal® base added to disperse the drug.
Fresh pig skin was obtained from a butcher and defatted to 5 mm thickness and shaved. 2 cm^2 pieces were cut with scissors and placed on Franz diffusion cells filled with PBS and clamped. 100 mg of each formulation was weighed and placed on top of the tissue and capped. The cells were placed in a 37 °C humid incubator for three hours and then dismantled. The tissue was washed three times with PBS and the centre drug-loaded circle of tissue was cut out with scissors and snap frozen. Tissues were sectioned by cryosectioning into 50 μm cuts pooled into groups of five.

[2] = Aqueous solubility with/without diblock copolymer (visual, film rehydration)
Procedure: In these studies the cannabinoid and diblock copolymer are dissolved in ethanol and dried to a film. Warm water is added and solubility is assessed by an optically clear solution or via HPLC or UV/Vis spectrophotometry.
Specific methodologies for aqueous solubility studies were as follows. Drug solutions having a concentration of 10 mg/mL were prepared by weighing drug and dissolving in an appropriate amount of ethanol in glass vials. Control drug samples (no diblock copolymer) were prepared by measuring 1 mL of room temperature distilled water in a glass vial and adding an appropriate volume of 10 mg/mL ethanol drug solution, followed by gentle mixing.
Drug samples with diblock copolymer (60:40 MePEG: PLLA, MW 3333 Da “DBC3333”; 57:43 MePEG:PCL, MW 1320 Da “[COMPOUND LEFT OUT]”; 40:60 MePEG:PCL, MW 1890 Da “PCL10”; 30:70 MePEG:PCL, MW 12000 Da “PCL61”) were prepared by weighing diblock copolymer into glass vials then adding 800 microlitres ethanol followed by an appropriate volume of 10 mg/mL ethanol drug solution. The diblock copolymer was dissolved in the ethanol solution via gentle mixing and the solvent was then evaporated via warm oven heating at approximately 50 °C. Once completely dry, 1 ml distilled water was added to the vials followed by gentle mixing. All vials were capped and left at room temperature for 12 hours, at which time the vials were photographed for evidence of precipitation.

[3] = background statement; cited from earlier work
[4] = Preparation of homogenous aqueous carboxymethyl cellulose (CMC) gel; format: physicochemical
Text: This Example illustrates that DBC3333 allowed for CBD, CBN, finasteride and docetaxel to be prepared within aqueous carboxymethyl cellulose (CMC) gels for topical use. […]

[5] = tested on: osteoarthritis; assay: Therapeutic efficacy case reports, osteoarthritis (VAS pain); format: in vivo, human
Procedure: (§1) In all cases, therapeutic efficacy studies were carried out with volunteer participants under the supervision of a healthcare practitioner. In all cases, informed consent was obtained. Participants were blinded to the DBC content of the gel samples provided. Participants were offered samples of control cannabinoid gel (no DBC) and asked to apply to the affected area twice daily and as needed for one week. Participants were told to maintain adherence to any prescribed medications while using the cannabinoid gel. Participants were contacted immediately after the one week treatment period for assessment. Following a washout period ranging from 4 to 12 weeks, participants were offered samples of DBC cannabinoid gel and asked to apply in the same manner, twice daily and as needed for one week, while maintaining adherence to any prescribed medications. Participants were contacted immediately after the one week treatment period for assessment. Efficacy was assessed using average daily 10-point visual analogue scale (VAS) pain score prior to beginning treatment and immediately after treatment. Participants were also asked to report all adverse effects experienced, if any, such as skin irritation, skin rash, localized or diffuse discomfort or pain, dizziness, fatigue, impaired concentration, feelings of euphoria or dysphoria, or other psychotropic effects.

[6] = tested on: rheumatoid arthritis; assay: Therapeutic efficacy case report, rheumatoid arthritis (VAS pain); format: in vivo, human
Procedure: as §1

[7] = Limit of aqueous solubility with/without PCL25 (HPLC or UV/VIS); format: physicochemical; conditions: water
Procedure: Aqueous solubility studies involving diblock copolymer PCL25 (63:37 MePEG:PCL MW 7900 Da) were carried out as follows. 1 mg of drug (either paclitaxel, capsaicin or curcumin) was added to glass vials, designated as either “control” or “diblock copolymer”. Diblock copolymer was omitted from control vials and 100 mg PCL25 was added to diblock copolymer vials. The contents of all vials were then dissolved in 300 microlitres of acetonitrile. The contents were dried at 60 °C for two hours and then 1 mL of warm water (40 °C) was added with vortexing for five minutes. To determine the limit of drug solubility, the contents of each vial were then placed in a microcentrifuge tube and centrifuged at 14000×g for 3 minutes to sediment any undissolved solids. The supernatant was diluted 50% in acetonitrile and the drug was quantitated by HPLC for paclitaxel and capsaicin or by UV/VIS spectrometry (420 nm) for curcumin after 100 fold dilution in acetonitrile for this drug. HPLC conditions were detection at 228 nm for both drugs and a mobile phase of 60:40 (paclitaxel) or 50:50 (capsaicin) acetonitrile:water flowing at 1 mL/min. Calibration standard for all drugs were run in acetonitrile.

[8] = Curcumin release from PVA film; format: physicochemical; conditions: for Curcumin released from PVA film: by 2 hours
Procedure: The 88% hydrolyzed version of PVA was used with a molecular weight of between 100000 and 150000 daltons. PVA was dissolved in water at 10% w/v by heating to 90 °C for one hour and then cooled. Separately, 40 mg of diblock copolymer DBC3333 was weighed into a glass vial and 100 μL of curcumin solution (10 mg/mL in ethanol) was added to 2 mL of the 10% PVA solution with mixing to give the non diblock casting solutions. Alternatively, 100 μL of the curcumin solution was added to 40 mg of diblock copolymer to dissolve it and then this was mixed with 2 mL of PVA solution. These give PVA films containing 20% diblock with approximately 0.5% curcumin (1 mg curcumin per film). The films were cast in small petri dishes and air dried at 37 °C for 4 hours.
This observational solubilization experiment added 2 mL of water to the film at t=0 and then at 5, 10, 25 mins the liquid was removed into a test tube for observation.
A second set of the same films were prepared and used for a drug release experiment whereby 10 mL of PBS (10 mM pH 7.4) was added to the films and at specified time points, 100 μL of solution was collected and added to 400 μL of water. The absorbance of these solutions was then measured at 420 nm by uv/vis absorbance.

[9] = topical, with DBC3333 vs formulation without
[10] = control, no diblock copolymer, drug 300 μg/mL
[11] = control, no diblock copolymer, drug 600 μg/mL
[12] = control, no diblock copolymer, drug 1000 μg/mL
[13] = diblock 0 mg/ml, drug 0.5 mg/ml
[14] = diblock (name withheld) 50 mg/ml, drug 1 mg/ml
[15] = diblock (name withheld) 50 mg/ml, drug 2 mg/ml
[16] = diblock (name withheld) 50 mg/ml, drug 3 mg/ml
[17] = diblock (name withheld) 50 mg/ml, drug 4 mg/ml
[18] = with DBC3333 50 mg/mL, drug 300 μg/mL
[19] = with DBC3333 50 mg/mL, drug 600 μg/mL
[20] = with DBC3333 50 mg/mL, drug 1000 μg/mL
[21] = with DBC3333 50 mg/mL, drug 2000 μg/mL
[22] = with DBC3333 50 mg/mL, drug 3000 μg/mL
[23] = with diblock copolymer PCL25 100 mg/mL
[24] = control, no diblock copolymer, drug 1 μg/mL
[25] = control, no diblock copolymer, drug 10 μg/mL
[26] = control, no diblock copolymer, drug 100 μg/mL
[27] = control, no diblock copolymer, drug 250 μg/mL
[28] = control, no diblock copolymer, drug 500 μg/mL
[29] = with DBC3333 20 mg/mL, drug 250 μg/mL
[30] = with DBC3333 20 mg/mL, drug 500 μg/mL
[31] = with DBC3333 20 mg/mL, drug 1000 μg/mL
[32] = with DBC3333 20 mg/mL, drug 2000 μg/mL
[33] = with DBC3333 20 mg/mL, drug 3000 μg/mL

With `C=C(C)[C@@H]1CCC(C)=C[C@H]1c1c(O)cc(CCCCC)cc1O` [CBD, cannabidiol] the Skin permeation ([1]; CMC gel with diblock copolymer (name withheld) vs identical CBD content in Glaxal base) was “enhanced skin permeation”, the Skin permeation [1, 9] was “enhanced skin permeation” and the Aqueous solubility [2, 10] was “Insol”. For the same compound, the Aqueous solubility [2, 11] was “Insol”, the Aqueous solubility [2, 12] was “Insol” and the Solubility [2, 13] was “Insol”. The Solubility ([2]; diblock 0 mg/ml, drug 1 mg/ml) was “Insol”, the Solubility [2, 14] was “soluble” and the Solubility [2, 15] was “soluble”. For the same compound, the Solubility [2, 16] was “Partially”, the Solubility [2, 17] was “Insol” and the Aqueous solubility [2, 18] was “Soluble”. For the same compound, the Aqueous solubility [2, 19] was “Soluble”, the Aqueous solubility [2, 20] was “Soluble” and the Aqueous solubility [2, 21] was “Partially”. The Aqueous solubility [2, 22] was “Insol”, the Water solubility [3] was about 1 µg/mL and the “Preparation of homogenous CMC gel” value ([4]; with DBC3333) was “allowed”. For the same compound, the “Preparation of homogenous CMC gel” value ([4]; with diblock copolymer (name withheld)) was “allowed” and the “Preparation of homogenous CMC gel” value ([4]; without diblock copolymer) was “not possible to prepare homogenous CMC gel preparations”.

With `CC(C)Cc1ccc(C(C)C(=O)O)cc1` (centres unmarked) [ibuprofen] the “VAS pain level after as-needed medication” value ([5]; Case 1, history, used when pain level reaches 4) was 3, the “Participant's description of efficacy” value ([6]; Case 4) was “mildly effective” and the “VAS pain level after ibuprofen 400 mg” value ([6]; Case 4, history, from 4) was 3.

In the case of `CC(=O)O[C@H]1C(=O)[C@@]2(C)[C@H]([C@H](OC(=O)c3ccccc3)[C@]3(O)C[C@H](OC(=O)[C@H](O)[C@@H](NC(=O)c4ccccc4)c4ccccc4)C(C)=C1C3(C)C)[C@]1(OC(C)=O)CO[C@@H]1C[C@@H]2O` [Paclitaxel, paclitaxel], the Solubility ([7]; control, no diblock copolymer) is reported as 2 µg/mL (≈ 2.34 µM) and the Solubility [7, 23] is reported as 488 µg/mL (≈ 571 µM).

With `COc1cc(CNC(=O)CCCC/C=C/C(C)C)ccc1O` [Capsaicin, capsaicin] the Skin permeation ([1]; CMC gel with PCL25 vs identical capsaicin content in Glaxal base) was “enhanced skin permeation”, the Solubility ([7]; control, no diblock copolymer) was 10 µg/mL (≈ 32.7 µM) and the Solubility [7, 23] was 506 µg/mL (≈ 1660 µM). For the same compound, the “Preparation of homogenous CMC gel” value ([4]; with PCL25) was “allowed” and the “Preparation of homogenous CMC gel” value ([4]; without diblock copolymer) was “not possible to prepare homogenous CMC gel preparations”.

In the case of `CCCCCc1cc(O)c2c(c1)OC(C)(C)[C@@H]1CCC(C)=C[C@@H]21` [THC, tetrahydrocannabinol], the Skin permeation [1, 9] is reported as “enhanced skin permeation”, the Aqueous solubility [2, 24] is reported as “Insol” and the Aqueous solubility [2, 25] is reported as “Insol”. The Aqueous solubility [2, 26] was “Insol”, the Aqueous solubility [2, 27] was “Insol” and the Aqueous solubility [2, 28] was “Insol”. For the same compound, the Aqueous solubility [2, 12] was “Insol”, the Aqueous solubility ([2]; control, no diblock copolymer, drug 2000 μg/mL) was “Insol” and the Solubility [2, 13] was “Insol”. The Solubility ([2]; diblock 0 mg/ml, drug 1 mg/ml) was “Insol”, the Solubility [2, 14] was “soluble” and the Solubility [2, 15] was “soluble”. The Solubility [2, 16] was “soluble”, the Solubility [2, 17] was “Soluble” and the Aqueous solubility [2, 29] was “Soluble”. The Aqueous solubility [2, 30] was “Soluble”, the Aqueous solubility [2, 31] was “Partially” and the Aqueous solubility [2, 32] was “Insol”. For the same compound, the Aqueous solubility [2, 33] was “Insol”, the Aqueous solubility ([2]; with DBC3333 50 mg/mL, drug 500 μg/mL) was “Soluble” and the Aqueous solubility [2, 20] was “Soluble”. For the same compound, the Aqueous solubility [2, 21] was “Soluble”, the Aqueous solubility [2, 22] was “Partially” and the Aqueous solubility ([2]; with DBC3333 50 mg/mL, drug 4000 μg/mL) was “Insol”. For the same compound, the Water solubility [3] was about 1 µg/mL.

In the case of `CC(=O)O[C@@]12CO[C@@H]1C[C@H](O)[C@@]1(C)C(=O)[C@H](O)C3=C(C)[C@@H](OC(=O)[C@H](O)[C@@H](NC(=O)OC(C)(C)C)c4ccccc4)C[C@@](O)([C@@H](OC(=O)c4ccccc4)[C@H]21)C3(C)C` [docetaxel], the Skin permeation [1, 9] is reported as “enhanced skin permeation”, the “Preparation of homogenous CMC gel” value ([4]; with DBC3333) is reported as “allowed” and the “Preparation of homogenous CMC gel” value ([4]; without diblock copolymer) is reported as “not possible to prepare homogenous CMC gel preparations”.

In the case of `CC(=O)Nc1ccc(O)cc1` [acetaminophen], the “Participant's description of efficacy/pain” value ([5]; Case 1) is reported as “little to no pain relief or prevention of pain during or after exercise”.

In the case of `CCCCCc1cc(O)c2c(c1)OC(C)(CCC=C(C)C)C=C2` (centres unmarked) [CBC, cannabichromene], the Water solubility [3] is listed as about 1 µg/mL.

In the case of `CCCCCc1cc2c(c(O)c1C(=O)O)[C@@H]1C=C(C)CC[C@H]1C(C)(C)O2` [THCA, tetrahydrocannabinolic acid], the Skin permeation [1, 9] is reported as “enhanced skin permeation”, the Aqueous solubility [2, 24] is reported as “Soluble” and the Aqueous solubility [2, 25] is reported as “Insol”. For the same compound, the Aqueous solubility [2, 26] was “Insol”, the Aqueous solubility [2, 27] was “Insol” and the Aqueous solubility [2, 28] was “Insol”. The Aqueous solubility [2, 12] was “Insol”, the Solubility [2, 13] was “Insol” and the Solubility ([2]; diblock 0 mg/ml, drug 1 mg/ml) was “Insol”. For the same compound, the Solubility [2, 14] was “soluble”, the Solubility [2, 15] was “soluble” and the Solubility [2, 16] was “soluble”. The Solubility [2, 17] was “Soluble”, the Aqueous solubility [2, 29] was “Soluble” and the Aqueous solubility [2, 30] was “Soluble”. The Aqueous solubility [2, 31] was “Soluble”, the Aqueous solubility [2, 32] was “Partially” and the Aqueous solubility [2, 33] was “Insol”.

In the case of `COc1cc(/C=C/C(=O)CC(=O)/C=C/c2ccc(O)c(OC)c2)ccc1O` [Curcumin, curcumin], the Skin permeation [1, 9] is reported as “enhanced skin permeation”, the Solubility ([7]; control, no diblock copolymer) is reported as under 1 µg/mL and the Solubility [7, 23] is reported as 1000 µg/mL (≈ 2710 µM). The “Curcumin release rate from PVA film” value ([8]; DBC3333 20% w/w to PVA vs no diblock) was “much faster”, the “Curcumin released from PVA film” value ([8]; DBC3333 20% w/w to PVA) was “all drug released” and the “Yellow colour in dish (observational solubilization)” value ([8]; diblock containing film vs no diblock film) was “markedly stronger”. The “Curcumin released from PVA film” value ([8]; no diblock copolymer, room temperature) was 6%.

With `CCCCCc1cc(O)c(C/C=C(\C)CCC=C(C)C)c(O)c1` [CBG, cannabigerol] the Aqueous solubility [2, 10] was “Insol”, the Aqueous solubility [2, 18] was “Soluble” and the Aqueous solubility [2, 19] was “Soluble”. For the same compound, the Aqueous solubility [2, 20] was “Soluble”, the Aqueous solubility [2, 21] was “Partially” and the Aqueous solubility [2, 22] was “Insol”. The Water solubility [3] was about 1 µg/mL.

For `CC(C)(C)NC(=O)[C@H]1CC[C@H]2[C@@H]3CC[C@H]4NC(=O)C=C[C@]4(C)[C@H]3CC[C@]12C` [finasteride], the Skin permeation [1, 9] was “enhanced skin permeation”, the Aqueous solubility [2, 10] was “Insol” and the Aqueous solubility [2, 11] was “Insol”. For the same compound, the Aqueous solubility [2, 12] was “Insol”, the Aqueous solubility [2, 18] was “Soluble” and the Aqueous solubility [2, 19] was “Partially”. The Aqueous solubility [2, 20] was “Insol”, the Aqueous solubility [2, 21] was “Insol” and the Aqueous solubility [2, 22] was “Insol”. For the same compound, the “Preparation of homogenous CMC gel” value ([4]; with DBC3333) was “allowed” and the “Preparation of homogenous CMC gel” value ([4]; without diblock copolymer) was “not possible to prepare homogenous CMC gel preparations”.

For `CCCCCc1cc(O)c2c(c1)OC(C)(C)c1ccc(C)cc1-2` [CBN, cannabinol], the Skin permeation [1, 9] is listed as “enhanced skin permeation”, the Water solubility [3] is listed as about 1 µg/mL and the “Preparation of homogenous CMC gel” value ([4]; with DBC3333) is listed as “allowed”. The “Preparation of homogenous CMC gel” value ([4]; without diblock copolymer) was “not possible to prepare homogenous CMC gel preparations”.
